Results: patent US11034672B1, “Tyrosine kinase inhibitor compositions, methods of making and methods of use” (Black Diamond Therapeutics, Inc., priority 2018, dated 2021)

Legend:
Type in all cases: cell-based
HER2 YVMA [1] = biological target: T1, HER2 YVMA (Homo sapiens, UniProt P04626, INS775YVMA); test: Activity for inhibiting HER2 (Table B), HER2 YVMA; conditions: read-out: HER2 YVMA, potency code (IC50)
T1 construct: expressed in transfected cells; host or cells: BaF3 (murine pro-B)
Experimental: (§1) EC50 values were determined with the same application.

HER2 S310F [2] = biological target: T2, HER2 S310F (Homo sapiens, UniProt P04626, S310F); test: BaF3 cell proliferation assay, HER2 S310F (Table B); conditions: potency code, 3 days, CellTiterGlo, read-out: HER2 S310F (Activity for Inhibiting HER2)
T2 construct: expressed in transfected cells; host or cells: BaF3 (murine pro-B)

EGFR V3 [3] = biological target: T3, EGFR V3 (Homo sapiens, UniProt P00533, DELINS30-297G); test: Activity for inhibiting EGFR (Table A), EGFR V3 (EGFR-Viii); conditions: read-out: EGFR V3, potency code (IC50)
T3 construct: expressed in transfected cells; host or cells: BaF3 (murine pro-B), retroviral pMXs-IRES-Blasticidin

EGFR WT [4] = biological target: T4, EGFR WT (Homo sapiens, UniProt P00533); test: Activity for inhibiting EGFR (Table A), EGFR WT; conditions: read-out: EGFR WT, potency code (IC50)
HER2 YVMA [5] = biological target: T1, HER2 YVMA; test: BaF3 cell proliferation assay, HER2 YVMA (Table B); conditions: potency code, 3 days, CellTiterGlo, read-out: HER2 YVMA (Activity for Inhibiting HER2)
EGFR V3 [6] = biological target: T3, EGFR V3; test: BaF3 cell proliferation assay, EGFR V3 (Table A); conditions: potency code, 3 days, CellTiterGlo, read-out: EGFR V3 (Activity for Inhibiting EGFR)
Experimental: (§2) Retroviral Production: EGFR mutants were subcloned into pMXs-IRES-Blasticidin (RTV-016, Cell Biolabs, San Diego, Calif.). Retroviral expression vector retrovirus was produced by transient transfection of HEK 293T cells with the retroviral EGFR mutant expression vector pMXs-IRES-Blasticidin (RTV-016, Cell Biolabs), pCMV-Gag-Pol vector and pCMV-VSV-G-Envelope vector. Briefly, HEK 293T/17 cells were plated in 100 mm collagen coated plate (354450, Corning Life Sciences, Tewksbury, Mass.) (4×10^5 per plate) and incubated overnight. The next day, retroviral plasmids (3 μg of EGFR mutant, 1.0 μg of pCMV-Gag-Pol and 0.5 μg pCMV-VSV-G) were mixed in 500 μl of Optimem (31985, Life Technologies). The mixture was incubated at room temperature for 5 min and then added to Optimem containing transfection reagent Lipofectamine (11668, Invitrogen) and incubated for 20 minutes. Mixture was then added dropwise to HEK 293T cells. The next day the medium was replaced with fresh culture medium and retrovirus was harvested @ 24 and 48 hrs.
(§3) Generation of EGFR mutant stable cell lines: BaF3 cells (1.5E5 cells) were infected with 1 ml of viral supernatant supplemented with 8 μg/ml polybrene by centrifuging for 30 min at 1000 rpm. Cells were placed in a 37° C. incubator overnight. Cells were then spun for 5 minutes to pellet the cells. Supernatant was removed and cells re-infected a fresh 1 ml of viral supernatant supplemented with 8 μg/ml polybrene by centrifuging for 30 min at 1000 rpm. Cells were placed in 37° C. incubator overnight. […] After 48 hours cells were selected for retroviral infection in 10 μg/ml Blasticidin for one week. Blasticidin resistant populations were washed twice in phosphate buffered saline before plating in media lacking IL-3 to select for IL-3 independent growth.
as §1

EGFR WT [7] = biological target: T4, EGFR WT; test: BaF3 cell proliferation assay, EGFR WT (Table A); conditions: potency code, 3 days, CellTiterGlo, read-out: EGFR WT (Activity for Inhibiting EGFR)
Experimental: as §2, §3, §1

HER2 S310F [8] = biological target: T2, HER2 S310F; test: Activity for inhibiting HER2 (Table B), HER2 S310F; conditions: read-out: HER2 S310F, potency code (IC50)
Experimental: as §1

T3 sequence (P00533 with tags, fused parts or gaps DELINS30-297G): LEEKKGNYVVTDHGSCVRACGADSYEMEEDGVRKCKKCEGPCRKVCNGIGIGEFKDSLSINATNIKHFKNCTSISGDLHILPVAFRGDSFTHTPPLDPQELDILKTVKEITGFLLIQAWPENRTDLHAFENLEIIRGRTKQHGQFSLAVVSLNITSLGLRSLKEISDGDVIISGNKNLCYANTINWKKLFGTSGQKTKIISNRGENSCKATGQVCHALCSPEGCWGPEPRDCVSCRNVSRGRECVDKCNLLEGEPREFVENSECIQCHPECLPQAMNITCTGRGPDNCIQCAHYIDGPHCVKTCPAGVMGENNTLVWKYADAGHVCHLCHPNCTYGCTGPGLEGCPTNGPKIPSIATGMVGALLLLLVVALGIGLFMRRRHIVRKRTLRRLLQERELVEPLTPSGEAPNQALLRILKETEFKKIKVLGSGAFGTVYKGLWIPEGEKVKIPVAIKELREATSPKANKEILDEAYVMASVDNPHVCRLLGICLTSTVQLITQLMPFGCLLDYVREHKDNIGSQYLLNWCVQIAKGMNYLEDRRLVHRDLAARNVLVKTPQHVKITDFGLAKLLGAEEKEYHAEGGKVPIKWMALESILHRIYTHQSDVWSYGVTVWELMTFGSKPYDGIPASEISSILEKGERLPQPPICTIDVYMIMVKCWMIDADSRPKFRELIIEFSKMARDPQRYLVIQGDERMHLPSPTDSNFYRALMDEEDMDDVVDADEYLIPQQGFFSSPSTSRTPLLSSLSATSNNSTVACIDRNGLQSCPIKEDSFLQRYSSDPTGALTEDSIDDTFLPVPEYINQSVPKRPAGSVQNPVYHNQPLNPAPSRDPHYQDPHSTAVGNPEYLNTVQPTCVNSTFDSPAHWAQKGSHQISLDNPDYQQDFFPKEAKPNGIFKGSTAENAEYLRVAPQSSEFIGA
T1 sequence (P04626 with tags, fused parts or gaps INS775YVMA): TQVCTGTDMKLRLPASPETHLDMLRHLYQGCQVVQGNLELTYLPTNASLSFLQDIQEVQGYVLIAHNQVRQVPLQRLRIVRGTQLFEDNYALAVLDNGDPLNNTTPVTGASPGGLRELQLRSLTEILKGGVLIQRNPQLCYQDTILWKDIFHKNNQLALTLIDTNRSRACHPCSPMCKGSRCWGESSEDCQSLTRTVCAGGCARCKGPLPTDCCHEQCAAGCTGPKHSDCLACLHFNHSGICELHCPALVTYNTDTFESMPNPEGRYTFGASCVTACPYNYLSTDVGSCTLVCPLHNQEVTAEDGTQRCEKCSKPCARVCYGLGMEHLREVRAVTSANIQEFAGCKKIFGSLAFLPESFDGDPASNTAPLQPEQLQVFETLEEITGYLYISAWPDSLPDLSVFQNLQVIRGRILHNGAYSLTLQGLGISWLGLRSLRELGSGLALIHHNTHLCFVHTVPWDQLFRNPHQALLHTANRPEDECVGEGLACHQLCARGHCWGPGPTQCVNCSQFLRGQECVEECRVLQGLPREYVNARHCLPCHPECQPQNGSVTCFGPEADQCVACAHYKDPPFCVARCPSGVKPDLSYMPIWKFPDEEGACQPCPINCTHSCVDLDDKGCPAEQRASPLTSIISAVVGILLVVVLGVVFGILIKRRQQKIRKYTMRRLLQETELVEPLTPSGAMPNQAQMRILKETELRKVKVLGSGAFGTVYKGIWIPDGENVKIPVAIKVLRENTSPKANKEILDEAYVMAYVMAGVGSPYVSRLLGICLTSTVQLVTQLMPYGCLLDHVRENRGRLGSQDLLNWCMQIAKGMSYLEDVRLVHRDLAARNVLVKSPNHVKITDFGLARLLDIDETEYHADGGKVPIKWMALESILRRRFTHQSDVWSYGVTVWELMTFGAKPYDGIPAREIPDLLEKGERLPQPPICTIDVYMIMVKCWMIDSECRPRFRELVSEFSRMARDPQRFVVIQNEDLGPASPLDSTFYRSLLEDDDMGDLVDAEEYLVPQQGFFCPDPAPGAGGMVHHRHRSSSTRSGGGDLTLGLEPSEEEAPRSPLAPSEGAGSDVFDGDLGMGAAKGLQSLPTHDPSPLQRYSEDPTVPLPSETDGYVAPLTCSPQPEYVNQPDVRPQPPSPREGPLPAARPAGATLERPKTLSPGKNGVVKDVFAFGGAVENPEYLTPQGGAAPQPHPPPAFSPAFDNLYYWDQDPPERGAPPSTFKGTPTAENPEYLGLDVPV
T2 sequence (P04626 23-1255 S310F): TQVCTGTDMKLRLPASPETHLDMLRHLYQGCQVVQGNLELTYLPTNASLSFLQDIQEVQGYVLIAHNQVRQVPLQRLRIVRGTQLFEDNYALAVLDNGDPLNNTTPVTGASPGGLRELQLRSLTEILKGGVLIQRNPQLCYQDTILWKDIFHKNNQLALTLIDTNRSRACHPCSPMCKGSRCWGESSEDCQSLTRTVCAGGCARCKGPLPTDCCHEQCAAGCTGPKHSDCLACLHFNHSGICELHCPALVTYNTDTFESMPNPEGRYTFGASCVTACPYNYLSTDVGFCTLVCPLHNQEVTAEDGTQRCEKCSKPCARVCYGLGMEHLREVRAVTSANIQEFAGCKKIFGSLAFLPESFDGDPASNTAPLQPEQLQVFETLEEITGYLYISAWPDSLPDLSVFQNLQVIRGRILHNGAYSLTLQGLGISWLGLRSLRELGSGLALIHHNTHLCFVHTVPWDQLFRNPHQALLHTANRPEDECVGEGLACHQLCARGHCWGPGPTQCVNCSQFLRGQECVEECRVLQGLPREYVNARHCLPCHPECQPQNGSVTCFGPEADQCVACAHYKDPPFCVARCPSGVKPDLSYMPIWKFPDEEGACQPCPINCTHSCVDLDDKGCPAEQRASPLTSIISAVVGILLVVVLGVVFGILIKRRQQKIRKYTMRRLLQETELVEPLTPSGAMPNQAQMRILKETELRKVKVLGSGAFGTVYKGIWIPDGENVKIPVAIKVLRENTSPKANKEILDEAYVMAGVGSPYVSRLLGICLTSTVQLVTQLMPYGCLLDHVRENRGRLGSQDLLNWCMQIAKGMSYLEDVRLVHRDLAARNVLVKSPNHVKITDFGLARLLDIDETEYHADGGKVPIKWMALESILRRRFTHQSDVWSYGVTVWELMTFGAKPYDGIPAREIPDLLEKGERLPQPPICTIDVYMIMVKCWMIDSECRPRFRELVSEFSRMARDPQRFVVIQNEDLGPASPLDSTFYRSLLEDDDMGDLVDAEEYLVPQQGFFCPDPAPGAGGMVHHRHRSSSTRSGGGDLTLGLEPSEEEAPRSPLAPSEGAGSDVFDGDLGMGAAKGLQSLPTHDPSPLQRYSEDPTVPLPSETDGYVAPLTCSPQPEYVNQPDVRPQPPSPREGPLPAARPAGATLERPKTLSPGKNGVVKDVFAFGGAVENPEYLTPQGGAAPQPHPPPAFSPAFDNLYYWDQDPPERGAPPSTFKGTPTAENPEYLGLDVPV
T4 sequence (P00533 25-1210 N540K): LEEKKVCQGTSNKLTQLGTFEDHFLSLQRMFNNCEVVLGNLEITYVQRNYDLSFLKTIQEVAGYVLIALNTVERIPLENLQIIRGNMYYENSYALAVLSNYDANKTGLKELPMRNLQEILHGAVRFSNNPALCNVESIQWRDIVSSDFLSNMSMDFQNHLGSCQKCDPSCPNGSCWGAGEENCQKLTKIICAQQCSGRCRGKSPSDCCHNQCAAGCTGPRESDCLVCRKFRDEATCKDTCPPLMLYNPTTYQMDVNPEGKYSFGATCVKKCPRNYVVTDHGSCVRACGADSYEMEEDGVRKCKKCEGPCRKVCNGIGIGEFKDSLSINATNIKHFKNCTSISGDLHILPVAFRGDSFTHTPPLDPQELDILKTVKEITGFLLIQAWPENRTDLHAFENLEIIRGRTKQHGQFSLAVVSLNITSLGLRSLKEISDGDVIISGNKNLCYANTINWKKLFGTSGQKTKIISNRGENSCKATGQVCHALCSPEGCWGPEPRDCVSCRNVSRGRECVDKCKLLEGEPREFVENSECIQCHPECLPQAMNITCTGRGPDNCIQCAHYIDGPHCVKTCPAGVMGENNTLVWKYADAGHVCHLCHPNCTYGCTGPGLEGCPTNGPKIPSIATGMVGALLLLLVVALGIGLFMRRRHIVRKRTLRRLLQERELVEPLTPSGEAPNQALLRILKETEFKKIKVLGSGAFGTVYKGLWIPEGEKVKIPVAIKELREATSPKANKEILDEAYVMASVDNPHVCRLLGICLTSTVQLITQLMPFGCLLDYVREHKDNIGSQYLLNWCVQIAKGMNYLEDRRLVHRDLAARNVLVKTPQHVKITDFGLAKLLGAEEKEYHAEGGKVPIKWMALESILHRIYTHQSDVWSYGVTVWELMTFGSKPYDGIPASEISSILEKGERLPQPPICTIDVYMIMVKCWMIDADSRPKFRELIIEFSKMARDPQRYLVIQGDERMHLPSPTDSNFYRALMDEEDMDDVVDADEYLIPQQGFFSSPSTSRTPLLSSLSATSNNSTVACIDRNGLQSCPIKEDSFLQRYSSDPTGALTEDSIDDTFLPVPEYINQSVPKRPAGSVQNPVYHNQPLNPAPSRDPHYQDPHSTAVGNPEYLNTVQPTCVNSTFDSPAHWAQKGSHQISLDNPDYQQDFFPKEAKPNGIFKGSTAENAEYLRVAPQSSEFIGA

| SMILES | IC50 (HER2 YVMA [1]) | IC50 (HER2 S310F [2]) | IC50 (EGFR V3 [3]) | IC50 (EGFR WT [4]) | IC50 (HER2 YVMA [5]) | IC50 (EGFR V3 [6]) | IC50 (EGFR WT [7]) | IC50 (HER2 S310F [8]) |
| --- | --- | --- | --- | --- | --- | --- | --- | --- |
| C=CC(=O)Nc1cc2c(Nc3ccc(OCc4ccccn4)c(Cl)c3)ncnc2cc1OCC[C@H]1CCCN1C [compound 95, N-(4-((3-chloro-4-(pyridin-2-ylmethoxy)phenyl)amino)-7-(2-(1-methylpyrrolidin-2-yl)ethoxy)quinazolin-6-yl)acrylamide] | 30 to 50 nM | 5 to 10 nM | 20 to 30 nM | 100 to 200 nM | 30 to 50 nM | 20 to 30 nM | 100 to 200 nM | 5 to 10 nM |
| CC#CC(=O)Nc1cc2c(Nc3ccc(OCc4ccccn4)c(Cl)c3)ncnc2cc1C#CC(C)(C)N1CCN(C)CC1 [compound 89, N-(4-((3-chloro-4-(pyridin-2-ylmethoxy)phenyl)amino)-7-(3-methyl-3-(4-methylpiperazin-1-yl)but-1-yn-1-yl)quinazolin-6-yl)but-2-ynamide] | 50 to 100 nM | 10 to 20 nM | 30 to 50 nM | 50 to 100 nM | 50 to 100 nM | 30 to 50 nM | 50 to 100 nM | 10 to 20 nM |
| C=CC(=O)Nc1cc2c(Nc3ccc(OCc4cccnn4)c(Cl)c3)ncnc2cc1OCCCN1CCOCC1 [compound 167] | 50 to 100 nM | 10 to 20 nM | 30 to 50 nM | > 1000 nM | 50 to 100 nM | 30 to 50 nM | > 1000 nM | 10 to 20 nM |
| C=CC(=O)Nc1cc2c(Nc3cc(Cl)c(OCc4cccc(F)c4)cc3F)ncnc2cc1OCCN1CCN(C)CC1 [compound 145] | 200 to 300 nM | 30 to 50 nM | 50 to 100 nM | 100 to 200 nM | 200 to 300 nM | 50 to 100 nM | 100 to 200 nM | 30 to 50 nM |
| C=CC(=O)Nc1cc2c(Nc3ccc(OCc4ccccn4)cc3)ncnc2cc1OCCN1CCC(N(C)C)CC1 [compound 80] | 500 to 1000 nM | 50 to 100 nM | 50 to 100 nM | 100 to 200 nM | 500 to 1000 nM | 50 to 100 nM | 100 to 200 nM | 50 to 100 nM |
| C=CC(=O)Nc1cc2c(Nc3ccc(Oc4ccc(C)nc4)c(C)c3)ncnc2cc1C#CC(C)(C)N(C)C [compound 82] | 500 to 1000 nM | 50 to 100 nM | 300 to 500 nM | 500 to 1000 nM | 500 to 1000 nM | 300 to 500 nM | 500 to 1000 nM | 50 to 100 nM |
| C=CC(=O)Nc1cc2c(Nc3ccc(OCc4ccccn4)cc3)ncnc2cc1OCC1COCCN1 (centres unmarked) [compound 79] | > 1000 nM | 100 to 200 nM | 50 to 100 nM | 300 to 500 nM | > 1000 nM | 50 to 100 nM | 300 to 500 nM | 100 to 200 nM |
| C=CC(=O)Nc1cc2c(Nc3ccc(OCc4cccc(F)n4)c(Cl)c3)ncnc2cc1OCCCN1CC(OC)C1 [compound 155] | 30 to 50 nM | 10 to 20 nM | 30 to 50 nM | 300 to 500 nM | 30 to 50 nM | 30 to 50 nM | 300 to 500 nM | 10 to 20 nM |
| C=CC(=O)Nc1cc2c(Nc3ccc(OCc4ccccn4)c(Cl)c3)ncnc2cc1OCCN1CCC(OC)CC1 [compound 114, N-(4-((3-chloro-4-(pyridin-2-ylmethoxy)phenyl)amino)-7-(2-(4-methoxypiperidin-1-yl)ethoxy)quinazolin-6-yl)acrylamide] | 100 to 200 nM | 30 to 50 nM | 30 to 50 nM | 300 to 500 nM | 100 to 200 nM | 30 to 50 nM | 300 to 500 nM | 30 to 50 nM |
| C=CC(=O)Nc1cc2c(Nc3cc(Cl)c(OCc4cccc(F)c4)cc3F)ncnc2cc1OCCN1CC2CCC(C1)O2 [compound 147] | 200 to 300 nM | 50 to 100 nM | 50 to 100 nM | 500 to 1000 nM | 200 to 300 nM | 50 to 100 nM | 500 to 1000 nM | 50 to 100 nM |
